The values that follow come from patent US9399637B2, “Substituted heteroaryl compounds and methods of use” (Calitor Sciences, LLC, priority 2014, dated 2016).

A short description of series [1]: Compound stability in human liver microsomes. It is filed as in vitro ADME. The settings on record: pH 7.4; for half-life at 5 μM: human liver microsomes 0.5 mg protein/mL, compound 5 μM, NADPH, 37° C., read-out: Human T1/2; for CLint scaled at 5 μM: human liver microsomes, in vivo CLint extrapolated. The method, then: (§1) Human or rat liver microsomes incubations were conducted in duplicate in polypropylene tubes. The typical incubation mixtures consisted of human or rat liver microsomes (0.5 mg protein/mL), compounds of interest (5 μM) and NADPH (1.0 mM) in a total volume of 200 μL potassium phosphate buffer (PBS, 100 mM, pH 7.4). Compounds were dissolved in DMSO and diluted with PBS such that the final concentration of DMSO was 0.05%. The enzymatic reactions were commenced with the addition of […] after a 3-min preincubation and incubated in a water bath open to the air at 37° C. Reactions were terminated at various time points (0, 5, 10, 15, 30, 60 min) by adding equal volume of ice-cold acetonitrile. The samples were stored at […] until LC/MS/MS assays.
(§2) The concentrations of compounds in the incubation mixtures of human or rat liver microsomes were determined by a LC/MS/MS method. The ranges of the linearity in the concentration range were determined for each tested compounds.
(§3) A parallel incubation was performed using denatured microsomes as the negative control, and reactions were terminated at various time points (0, 15, 60 min) after incubation at 37° C.
(§4) Dextromethorphan (70 μM) was selected as the positive control, and reactions were terminated at various time points (0, 5, 10, 15, 30, 60 min) after incubation at 37° C. Both positive and negative control samples were included in each assay to ensure the integrity of the microsomal incubation system.
(§5) The concentrations of compounds in human or rat liver microsome incubations were plotted as a percentage of the relevant zero time point control for each reaction. The in vivo CLint were extrapolated (ref.: Naritomi, Y.; Terashita, S.; Kimura, S.; Suzuki, A.; Kagayama, A.; and Sugiyama, Y.; Prediction of human hepatic clearance from in vivo animal experiments and in vitro metabolic studies with liver microsomes from animals and humans. Drug Metab. Dispos., 2001, 29: 1316-1324).

Series [2] is described as follows: Compound stability in rat liver microsomes. It is filed as in vitro ADME. The settings on record: pH 7.4; for half-life at 5 μM: rat liver microsomes 0.5 mg protein/mL, compound 5 μM, NADPH, 37° C., read-out: Rat T1/2; for CLint scaled at 5 μM: rat liver microsomes, in vivo CLint extrapolated. Here is the method: as §1, §2, §3, §4, §5
Series [3] in a line: Pharmacokinetics after intravenous and oral administration in rats. It is filed as in vivo. The settings on record: iv dosing, 1 mg/kg; for AUC(0-t) / half-life / Vd: rat, plasma; for Vd: read-out: Vss. The method, then:
The LC/MS/MS system used in the analysis consists of an Agilent 1200 Series vacuum degasser, binary pump, well-plate autosampler, thermostatted column compartment, the Agilent G6430 Triple Quadrupole Mass Spectrometer with an electrosprayionization (ESI) source. Quantitative analysis was carried out using MRM mode. The parameters for MRM transitions are in the Table A.
An Agilent XDB-C18, 2.1×30 mm, 3.5 μM column was used for the analysis. 5 μL of the samples were injected. Analysis condition: The mobile phase was 0.1% formic acid in water (A) and 0.1% formic acid in methanol (B). The flow rate was 0.4 mL/min. And the gradient of Mobile phase was in the Table B.
Alternatively, an Agilent 6330 series LC/MS/MS spectrometer equipped with G1312A binary pumps, a G1367A autosampler and a G1314C UV detector were used in the analysis. An ESI source was used on the LC/MS/MS spectrometer. The analysis was done in positive ion mode as appropriate and the MRM transition for each analyte was optimized using standard solution. A Capcell MP-C18 100×4.6 mm I.D., […] column (Phenomenex, Torrance, Calif., USA) was used during the analysis. The mobile phase was 5 mM ammonia acetate, 0.1% MeOH in water (A): 5 mM ammonia acetate, 0.1% MeOH in acetonitrile (B) (70:30, v/v). The flow rate was 0.6 mL/min. Column was maintained at ambient temperature. 20 μL of the samples were injected.
The compounds disclosed herein are assessed in pharmacokinetic studies in mice, rats, dogs or monkeys. The compounds are administered as a water solution, 2% HPMC+1% TWEEN®80 in water solution, 5% DMSO+5% solutol in saline, 4% MC suspension or capsule. For the intravenous administration, the animals are generally given at 1 or 2 mg/kg dose. For the oral (p.o.) dosing, mice and rats are generally given 5 or 10 mg/kg dose, and dogs and monkeys are generally given 10 mg/kg dose. The blood samples (0.3 mL) are drawn at 0.25, 0.5, 1.0, 2.0, 3.0, 4.0, 6.0, 8.0, 12 and 24 h time points or 0.083, 0.25, 0.5, 1.0, 2.0, 4.0, 6.0, 8.0 and 24 h time points and centrifuged at 3,000 or 4000 rpm for 2 to 10 min. The plasma solutions are collected, and stored at −20° C. or −70° C. until analyzed by LC/MS/MS as described above.

The target in series [4] is T1, JAK1 (h) (Homo sapiens, UniProt P23458).
T1 construct: purchased Millipore UK Ltd (assays run there as a service)
T1 sequence (P23458 whole entry): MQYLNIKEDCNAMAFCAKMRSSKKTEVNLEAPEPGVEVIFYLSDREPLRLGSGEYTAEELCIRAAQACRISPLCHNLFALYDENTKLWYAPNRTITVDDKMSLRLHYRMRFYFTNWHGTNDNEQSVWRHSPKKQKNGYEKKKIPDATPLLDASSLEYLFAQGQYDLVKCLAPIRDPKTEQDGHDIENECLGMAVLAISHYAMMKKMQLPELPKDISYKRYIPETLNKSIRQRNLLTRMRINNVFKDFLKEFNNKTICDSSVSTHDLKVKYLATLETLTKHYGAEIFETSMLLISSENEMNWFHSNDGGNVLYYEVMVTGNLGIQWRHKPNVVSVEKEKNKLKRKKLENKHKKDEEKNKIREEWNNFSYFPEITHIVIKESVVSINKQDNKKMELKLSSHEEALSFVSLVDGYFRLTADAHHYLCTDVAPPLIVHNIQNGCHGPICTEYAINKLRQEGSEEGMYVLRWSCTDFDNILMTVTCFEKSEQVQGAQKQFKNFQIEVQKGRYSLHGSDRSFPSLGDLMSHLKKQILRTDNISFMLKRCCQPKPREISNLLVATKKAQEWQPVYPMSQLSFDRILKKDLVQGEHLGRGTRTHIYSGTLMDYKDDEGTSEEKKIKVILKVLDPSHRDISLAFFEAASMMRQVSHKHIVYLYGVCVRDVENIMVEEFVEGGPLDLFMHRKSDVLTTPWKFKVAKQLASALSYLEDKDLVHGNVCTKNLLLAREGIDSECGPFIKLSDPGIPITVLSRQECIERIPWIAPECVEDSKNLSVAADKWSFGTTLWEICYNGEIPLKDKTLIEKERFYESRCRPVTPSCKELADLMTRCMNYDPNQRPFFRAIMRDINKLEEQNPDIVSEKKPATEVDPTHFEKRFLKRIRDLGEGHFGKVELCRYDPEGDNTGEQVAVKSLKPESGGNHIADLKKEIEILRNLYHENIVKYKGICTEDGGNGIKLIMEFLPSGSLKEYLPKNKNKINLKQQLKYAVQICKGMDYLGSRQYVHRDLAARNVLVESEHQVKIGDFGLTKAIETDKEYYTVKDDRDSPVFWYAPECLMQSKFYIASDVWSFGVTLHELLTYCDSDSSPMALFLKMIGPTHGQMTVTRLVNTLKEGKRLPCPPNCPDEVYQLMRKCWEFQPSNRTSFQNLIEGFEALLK
The series is described as follows: JAK1 kinase assay. It is filed as biochemical. The method, then: (§6) Kinase assays can be performed by measurement of incorporation of γ-^33P ATP into immobilized myelin basic protein (MBP). High binding white 384 well plates (Greiner) are coated with MBP (Sigma #M-1891) by incubation of 60 μL/well of 20 μg/mL MBP in Tris-buffered saline (TBS; 50 mM Tris pH 8.0, 138 mM NaCl, 2.7 mM KCl) for 24 h at 4° C. Plates are washed 3× with 100 μL TBS. Kinase reactions are carried out in a total volume of 34 μL in kinase buffer (5 mM Hepes pH 7.6, 15 mM NaCl, 0.01% bovine gamma globulin (Sigma #I-5506), 10 mM MgCl2, 1 mM DTT, 0.02% TritonX-100). Compound dilutions are performed in DMSO and added to assay wells to a final DMSO concentration of 1%. Each data point is measured in duplicate, and at least two duplicate assays are performed for each individual compound determination. Enzyme is added to final concentrations of 10 nM or 20 nM, for example. A mixture of unlabeled ATP and γ-^33P ATP is added to start the reaction (2×10^6 cpm of γ-^33P ATP per well (3000 Ci/mmole) and 10 μM unlabeled ATP, typically. The reactions are carried out for 1 h at room temperature with shaking Plates are washed 7× with TBS, followed by the addition of 50 μL/well scintillation fluid (Wallac). Plates are read using a Wallac Trilux counter. This is only one format of such assays; various other formats are possible, as known to one skilled in the art.
(§7) The above assay procedure can be used to determine the IC50 for inhibition and/or the inhibition constant, Ki. The IC50 is defined as the concentration of compound required to reduce the enzyme activity by 50% under the condition of the assay. The IC50 value is estimated by preparing a 10 point curve using a ½ log dilution series (for example, a typical curve may be prepared using the following compound concentrations: 3 μM, 1 μM, 0.3 μM, 0.1 μM, 0.03 μM, 0.01 μM, 0.003 μM, 0.001 μM, 0.0003 μM and 0 μM).
JAK1 (h) is incubated with 20 mM Tris/HCl pH 7.5, 0.2 mM EDTA, 500 μM […], 10 mM MgAcetate and [γ-^33P-ATP] (specific activity approx. 500 cpm/pmol, concentration as required).
(§8) The kinase assays described herein were performed at Millipore UK Ltd, Dundee Technology Park, Dundee DD2 1SW, UK.

Series [5] addresses T2, JAK2 (h) (Homo sapiens, UniProt O60674).
T2 construct: purchased Millipore UK Ltd (assays run there as a service)
The series is described as follows: JAK2 kinase assay. It is filed as biochemical. Here is the method:
as §6, §7
(specific activity approx. 500 cpm/pmol, concentration as required).
as §8

Each structure is given as a SMILES string.

T2 sequence (O60674 whole entry): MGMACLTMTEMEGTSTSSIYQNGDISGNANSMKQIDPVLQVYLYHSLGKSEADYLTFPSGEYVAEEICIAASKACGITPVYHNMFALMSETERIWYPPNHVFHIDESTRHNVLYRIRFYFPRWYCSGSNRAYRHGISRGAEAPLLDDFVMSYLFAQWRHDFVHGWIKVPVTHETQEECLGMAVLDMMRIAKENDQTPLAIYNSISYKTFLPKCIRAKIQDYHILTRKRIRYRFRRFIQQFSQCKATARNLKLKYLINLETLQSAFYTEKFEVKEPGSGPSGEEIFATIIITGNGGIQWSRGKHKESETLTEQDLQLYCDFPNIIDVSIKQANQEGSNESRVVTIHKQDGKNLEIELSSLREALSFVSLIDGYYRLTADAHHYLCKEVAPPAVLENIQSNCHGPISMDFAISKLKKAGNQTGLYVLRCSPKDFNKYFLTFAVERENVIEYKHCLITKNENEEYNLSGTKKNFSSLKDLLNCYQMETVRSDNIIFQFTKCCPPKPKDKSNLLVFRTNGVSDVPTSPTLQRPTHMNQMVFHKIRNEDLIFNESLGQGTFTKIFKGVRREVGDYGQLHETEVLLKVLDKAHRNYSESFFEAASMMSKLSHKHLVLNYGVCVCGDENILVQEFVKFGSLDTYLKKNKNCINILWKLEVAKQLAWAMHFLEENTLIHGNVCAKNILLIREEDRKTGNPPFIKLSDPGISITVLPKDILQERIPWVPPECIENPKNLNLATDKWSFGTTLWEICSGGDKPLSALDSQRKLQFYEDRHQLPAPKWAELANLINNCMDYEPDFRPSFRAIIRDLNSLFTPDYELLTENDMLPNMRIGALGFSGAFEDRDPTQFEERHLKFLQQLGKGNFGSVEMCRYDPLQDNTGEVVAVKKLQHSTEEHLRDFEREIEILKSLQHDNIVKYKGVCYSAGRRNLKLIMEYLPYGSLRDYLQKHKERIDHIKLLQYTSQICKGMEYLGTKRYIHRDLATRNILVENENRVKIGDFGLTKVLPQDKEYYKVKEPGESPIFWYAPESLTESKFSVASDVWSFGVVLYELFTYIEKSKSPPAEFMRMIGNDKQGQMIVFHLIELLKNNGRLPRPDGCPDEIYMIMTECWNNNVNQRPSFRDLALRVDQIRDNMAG

As for `Cc1c2ccc(Nc3nccc(N(C)C4CCC5(CC4)CCN(C(=O)CC#N)C5)n3)cc2nn1C` (stereo not drawn) [Ex. 2, 3-(8-((2-((2,3-dimethyl-2H-indazol-6-yl)amino)pyrimidin-4-yl)(methyl)amino)-2-azaspiro[4.5]decan-2-yl)-3-oxopropanenitrile], in series [1], the half-life at 5 μM worked out at 20.3 min and the CLint scaled at 5 μM is 85.5 mL/min/kg. Also, in series [2], the half-life at 5 μM is 22.2 min and the CLint scaled at 5 μM is 112 mL/min/kg. For the same compound, in series [3], the Cl/F turned out to be 49.8 mL/min/kg, the AUC(0-t) came out at 332 ng·h/mL, the half-life was 109 min and the Vd is 3.59 L/kg.
As to `Cc1c2ccc(Nc3ncc(Cl)c(NC4CCC5(CC4)CCN(C(=O)CC#N)CC5)n3)cc2nn1C` [Ex. 6, 3-(9-((5-chloro-2-((2,3-dimethyl-2H-indazol-6-yl)amino)pyrimidin-4-yl)amino)-3-azaspiro[5.5]undecan-3-yl)-3-oxopropanenitrile], in series [1], the half-life at 5 μM was 79.8 min and the CLint scaled at 5 μM is 21.8 mL/min/kg. In addition, in series [2], the half-life at 5 μM was 41 min and the CLint scaled at 5 μM is 60.6 mL/min/kg. Besides, in series [3], the Cl/F was 22.3 mL/min/kg, the AUC(0-t) stood at 743 ng·h/mL, the half-life is 78.6 min and the Vd stood at 2.55 L/kg. The compound further showed an IC50 in series [4] of 0.6 nM. This compound registered an IC50 in series [5] of 2 nM.
As to `Cc1cnc(Nc2ccc3c(C)n(C)nc3c2)nc1NC1CC2CN(C(=O)CC#N)CC2C1` (stereo not drawn) [Ex. 9, 3-(5-((2-((2,3-dimethyl-2H-indazol-6-yl)amino)-5-methylpyrimidin-4-yl)amino)hexahydrocyclopenta[c]pyrrol-2(1H)-yl)-3-oxopropanenitrile], in series [1], the half-life at 5 μM amounted to 31.2 min and the intrinsic clearance (CLint scaled) at 5 μM was 55.7 mL/min/kg. In series [2], the half-life at 5 μM was determined as 52.7 min and the CLint scaled at 5 μM is 47.1 mL/min/kg. In addition, in series [4], the IC50 was determined as 2 nM.
`Cc1cnc(Nc2ccc3c(C)n(C)nc3c2)nc1NC1CC2CN(S(C)(=O)=O)CC2C1` (stereo not drawn) [Ex. 10, N^2-(2,3-dimethyl-2H-indazol-6-yl)-5-methyl-N^4-(2-(methylsulfonyl)octahydrocyclopenta[c]pyrrol-5-yl)pyrimidine-2,4-diamine]: in series [1], the half-life at 5 μM was 20 min and the CLint scaled at 5 μM was 87 mL/min/kg. In series [2], the half-life at 5 μM came to 50.7 min and the CLint scaled at 5 μM is 49 mL/min/kg. In series [3], the Cl/F turned out to be 33.2 mL/min/kg, the AUC(0-t) was 501 ng·h/mL, the half-life was 43.8 min and the Vd amounted to 1.75 L/kg. This compound also yielded an IC50 in series [4] of 7 nM.
In series [4], `CC(=O)N1CC2CC(Nc3nc(Nc4ccc5c(C)n(C)nc5c4)ncc3C)CC2C1` (stereo not drawn) [Ex. 11, 1-(5-((2-((2,3-dimethyl-2H-indazol-6-yl)amino)-5-methylpyrimidin-4-yl)amino)hexahydrocyclopenta[c]pyrrol-2(1H)-yl)ethanone] returned an IC50 of 57 nM.
For the compound `Cc1cnc(Nc2ccc3c(C)n(C)nc3c2)nc1NC1CCC2(CC1)CCN(C(=O)CC#N)CC2` [Ex. 12, 3-(9-((2-((2,3-dimethyl-2H-indazol-6-yl)amino)-5-methylpyrimidin-4-yl)amino)-3-azaspiro[5.5]undecan-3-yl)-3-oxopropanenitrile], in series [1], the half-life at 5 μM is 166 min and the CLint scaled at 5 μM was 10.4 mL/min/kg. For the same compound, in series [2], the half-life at 5 μM amounted to 57.8 min and the CLint scaled at 5 μM is 43 mL/min/kg. Also, in series [3], the Cl/F amounted to 114 mL/min/kg, the AUC(0-t) turned out to be 144 ng·h/mL, the half-life is 54 min and the Vd came to 5.71 L/kg. The same compound returned a half-inhibitory concentration (IC50) in series [4] of 1 nM.
With `CC(=O)N1CCC2(CCC(Nc3nc(Nc4ccc5c(C)n(C)nc5c4)ncc3C)CC2)CC1` [Ex. 13, 1-(9-((2-((2,3-dimethyl-2H-indazol-6-yl)amino)-5-methylpyrimidin-4-yl)amino)-3-azaspiro[5.5]undecan-3-yl)ethanone], in series [1], the half-life at 5 μM amounted to 51.7 min and the CLint scaled at 5 μM was 33.6 mL/min/kg. Moreover, in series [2], the half-life at 5 μM is 27.9 min and the CLint scaled at 5 μM was 89.2 mL/min/kg. Besides, in series [3], the Cl/F is 75.5 mL/min/kg, the AUC(0-t) came out at 238 ng·h/mL, the half-life was 38.4 min and the Vd was 3.5 L/kg. The compound also returned an IC50 in series [4] of 2 nM.
